Key:
Experiment in all cases: relative viability (nuclei count vs DMSO), 5 days (fraction); higher = more cells survive
Bleomycin + Vorinostat = compound: CC1=C(N=C(N=C1N)[C@H](CC(=O)N)NC[C@@H](C(=O)N)N)C(=O)N[C@@H]([C@H](C2=CN=CN2)OC3C(C(C(C(O3)CO)O)O)OC4C(C(C(C(O4)CO)O)OC(=O)N)O)C(=O)N[C@H](C)[C@H]([C@H](C)C(=O)N[C@@H]([C@@H](C)O)C(=O)NCCC5=NC(=CS5)C6=NC(=CS6)C(=O)NCCC[S+](C)C)O [Bleomycin] + O=C(CCCCCCC(=O)Nc1ccccc1)NO [Vorinostat] (partner 1 µM); conditions: main component drawn
Method in brief: (§1)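 Dosing by pin tool came one day after lung cancer cell lines were seeded in 1536-well plates, using either one drug or a fixed anchor-drug dose plus five library-drug doses (not always all listed) in √10 steps. After 5 days, nuclei were counted on 4× images. Relative viability is treated-well nuclei count divided by vehicle-well nuclei count, and values are medians of duplicate plates.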

Etoposide + Tozasertib = compound: COc1cc([C@@H]2c3cc4c(cc3[C@@H](O[C@@H]3O[C@@H]5CO[C@@H](C)O[C@H]5[C@H](O)[C@H]3O)[C@H]3COC(=O)[C@H]23)OCO4)cc(OC)c1O [Etoposide] + Cc1cc(Nc2cc(N3CCN(C)CC3)nc(Sc3ccc(NC(=O)C4CC4)cc3)n2)n[nH]1 [Tozasertib] (partner 0.1 µM)
Method in brief: as §1

Etoposide + Luminespib = compound: COc1cc([C@@H]2c3cc4c(cc3[C@@H](O[C@@H]3O[C@@H]5CO[C@@H](C)O[C@H]5[C@H](O)[C@H]3O)[C@H]3COC(=O)[C@H]23)OCO4)cc(OC)c1O [Etoposide] + CCNC(=O)c1noc(-c2cc(C(C)C)c(O)cc2O)c1-c1ccc(CN2CCOCC2)cc1 [Luminespib] (partner 0.01 µM)
Method in brief: as §1

Etoposide + Olaparib = compound: COc1cc([C@@H]2c3cc4c(cc3[C@@H](O[C@@H]3O[C@@H]5CO[C@@H](C)O[C@H]5[C@H](O)[C@H]3O)[C@H]3COC(=O)[C@H]23)OCO4)cc(OC)c1O [Etoposide] + O=C(c1cc(Cc2n[nH]c(=O)c3ccccc23)ccc1F)N1CCN(C(=O)C2CC2)CC1 [Olaparib] (partner 8 µM)
Method in brief: as §1

Cell Line	relative viability (Bleomycin + Vorinostat; first compound 0.01 µM)	relative viability (Bleomycin + Vorinostat; first compound 0.03162 µM)	relative viability (Bleomycin + Vorinostat; first compound 0.1 µM)	relative viability (Bleomycin + Vorinostat; first compound 0.3162 µM)	relative viability (Bleomycin + Vorinostat; first compound 1 µM)	relative viability (Etoposide + Tozasertib; first compound 0.01 µM)	relative viability (Etoposide + Tozasertib; first compound 0.03162 µM)	relative viability (Etoposide + Tozasertib; first compound 0.1 µM)	relative viability (Etoposide + Tozasertib; first compound 0.3162 µM)	relative viability (Etoposide + Tozasertib; first compound 1 µM)	relative viability (Etoposide + Luminespib; first compound 0.01 µM)	relative viability (Etoposide + Luminespib; first compound 0.03162 µM)	relative viability (Etoposide + Luminespib; first compound 0.1 µM)	relative viability (Etoposide + Luminespib; first compound 0.3162 µM)	relative viability (Etoposide + Luminespib; first compound 1 µM)	relative viability (Etoposide + Olaparib; first compound 0.01 µM)	relative viability (Etoposide + Olaparib; first compound 0.03162 µM)	relative viability (Etoposide + Olaparib; first compound 0.1 µM)	relative viability (Etoposide + Olaparib; first compound 0.3162 µM)	relative viability (Etoposide + Olaparib; first compound 1 µM)
CAL-12T	0.542	0.532	0.351	0.166	0.155	0.256	0.297	0.408	0.264	0.28	0.28	0.531	0.212	0.287	0.348	0.716	0.623	0.693	0.368	0.213
SK-LU-1	0.734	0.746	0.521	0.454	0.348	0.356	0.278	0.318	0.161	0.167	0.237	0.243	0.189	0.191	0.183	0.407	0.511	0.348	0.238	0.193
NCI-H1650	0.36	0.241	0.22	0.146	0.169	0.381	0.356	0.337	0.197	0.208	0.204	0.175	0.202	0.209	0.211	0.797	0.652	0.723	0.341	0.198
BEN	0.63	0.609	0.481	0.531	0.497	0.463	0.503	–	0.483	0.481	0.235	0.583	–	0.206	0.245	0.938	1.01	–	0.936	0.672
EMC-BAC-2	–	0.472	0.36	0.28	0.18	0.251	0.276	0.288	0.221	0.203	0.895	0.932	0.651	0.297	0.248	0.443	0.413	0.352	0.249	0.214
LU99A	0.394	0.392	0.353	0.207	0.125	0.283	0.277	0.262	0.247	0.241	0.279	0.255	0.246	0.22	0.217	0.277	0.28	0.205	0.139	0.118
ABC-1	1.24	1.28	1.07	0.684	0.579	0.176	0.202	0.186	0.199	0.195	0.35	0.648	0.33	0.351	0.29	0.79	0.873	0.663	0.607	0.443
NCI-H2170	0.639	0.591	0.605	0.383	0.34	0.634	0.778	0.522	0.593	0.526	0.714	0.874	0.273	0.585	0.452	0.581	0.621	–	0.514	0.29
